# Measurements reported in PubChem BioAssay (NCI).
# Values joined by “and” are separate entries in the source; they are usually repeats but may differ in a detail not shown here. Equal values may be shown once.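 All cell lines were grown in 96-well plates and treated with compound for 48 hours. GI50: concentration for 50% inhibition of growth. TGI denotes the concentration required for complete inhibition of growth.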
# Assays:
# Assay in all cases: inhibition of tumour cell growth, NCI panel, 48 h
# M14 melanoma = system: M14 melanoma
# TK-10 renal = system: TK-10 renal
# OVCAR-3 ovarian = system: OVCAR-3 ovarian
# PC-3 prostate = system: PC-3 prostate
# SN12C renal = system: SN12C renal
# A549 NSCLC = system: A549 NSCLC
# CAKI-1 renal = system: CAKI-1 renal
# 786-0 renal = system: 786-0 renal
# MALME-3M melanoma = system: MALME-3M melanoma
# SK-OV-3 ovarian = system: SK-OV-3 ovarian
Compound,GI50 (M14 melanoma),TGI (M14 melanoma),GI50 (TK-10 renal),TGI (TK-10 renal),GI50 (OVCAR-3 ovarian) [µM],TGI (OVCAR-3 ovarian),GI50 (PC-3 prostate),TGI (PC-3 prostate),GI50 (SN12C renal),TGI (SN12C renal),GI50 (A549 NSCLC),TGI (A549 NSCLC),GI50 (CAKI-1 renal),TGI (CAKI-1 renal),GI50 (786-0 renal),TGI (786-0 renal),GI50 (MALME-3M melanoma),TGI (MALME-3M melanoma),GI50 (SK-OV-3 ovarian),TGI (SK-OV-3 ovarian)
COc1cc2nc(-c3cc(F)ccc3O)nc(N[C@@H]3CNC[C@H]3C(C)(C)O)c2cc1OC,1.87 µM,3.47 µM,1.94 µM,5.68 µM,1.9,3.62 µM,2.09 µM,5.7 µM,1.42 µM,3.12 µM,1.74 µM,3.51 µM,1 µM,2.54 µM,1.44 µM,2.92 µM,1.78 µM,3.24 µM,2.29 µM,4.72 µM
NS(=O)(=O)c1ccc(-c2cc3ccncc3cc2OCc2ccccc2)cc1,> 25 µM,> 25 µM,> 23.1 µM,> 25 µM,12.1,> 25 µM,> 20.5 µM,> 25 µM,24.9 µM,> 25 µM,8.59 µM,> 25 µM,> 23.8 µM,> 25 µM,> 19.8 µM,> 25 µM,22.8 µM,> 25 µM,11.1 µM,> 19.3 µM
O=C1c2sccc2-c2cccc3cccc1c23 (tested in a mixture with another compound),–,> 100 µM,–,22.6 µM,–,67.8 µM,–,31.6 µM,–,89.4 µM,–,16.8 µM,–,24.2 µM,–,> 100 µM,–,9.06 µM,–,> 100 µM
Cc1ccc(-c2nc([P+](c3ccccc3)(c3ccccc3)c3ccccc3)c(S(=O)(=O)c3ccc(C)cc3)o2)cc1,1.51 µM,3.27 µM,1.73 µM,3.27 µM,0.755,2.07 µM,1.43 µM,3.28 µM,1.06 µM,2.34 µM,2 µM,5.14 µM,1.36 µM,2.71 µM,1.46 µM,2.85 µM,1.02 µM,2.19 µM,3.74 µM,12.5 µM
c1ccc2c(c1)Nc1ccncc1S2,32.4 µM,> 100 µM,22.7 µM,83.4 µM,18.6,57 µM,27 µM,> 100 µM,27.8 µM,> 100 µM,26.3 µM,> 100 µM,11.4 µM,56 µM,28.8 µM,> 100 µM,28.2 µM,89.8 µM,37 µM,> 100 µM
COC(=O)[C@H]1CCCN1C(=O)[C@H]1CCCN1C(=O)[C@@H](Cc1c[nH]c2ccccc12)NC(=S)Nc1cc(C(F)(F)F)cc(C(F)(F)F)c1,2.04 µM,4.19 µM,2.21 µM,5.62 µM,1.69,3.41 µM,1.61 µM,3.04 µM,1.69 µM,3.19 µM,1.83 µM,4.52 µM,2.1 µM,5.63 µM,1.83 µM,3.29 µM,1.75 µM,3.31 µM,3.01 µM,10.1 µM
O=C(O)CCC(=O)c1ccc2sc3ccccc3c2c1,–,> 100 µM,–,> 100 µM,–,> 100 µM,–,> 100 µM,–,> 100 µM,–,> 100 µM,–,> 100 µM,–,> 100 µM,–,> 100 µM,–,> 100 µM
O=C1OC(C(O)CO)C(O)=C1O (centres undefined),1890 µM and 2290 µM,3570 µM and 4760 µM,9040 µM and > 4840 µM,> 10000 µM,1560,2900 µM,2190 µM and > 4180 µM,5670 µM and > 5820 µM,1460 µM and 1540 µM,2810 µM and 3070 µM,2510 µM and > 4270 µM,6010 µM and > 6460 µM,1880 µM and 2150 µM,3350 µM and 4620 µM,1790 µM and > 4300 µM,3290 µM and > 5710 µM,1540 µM and 1760 µM,2990 µM and 3550 µM,6030 µM and > 4760 µM,> 10000 µM
Oc1cccc2ccc(N/N=C/c3cc(CN4CCOCC4)c(O)c4ncccc34)nc12,0.0392 µM,1.58 µM,0.0497 µM,13.5 µM,0.0392,2.09 µM,0.0346 µM,4.92 µM,0.0348 µM,7.82 µM,0.0245 µM,1.23 µM,0.0506 µM,1.59 µM,0.0444 µM,3.75 µM,0.032 µM,1.89 µM,0.0272 µM,0.368 µM
Oc1ccc(C(c2ccc(O)cc2)c2ccc(Br)cn2)cc1,14.5 µM,47.4 µM,0.258 µM,1.13 µM,0.0963,0.411 µM,0.257 µM,0.72 µM,0.325 µM,3.82 µM,1.95 µM,60 µM,20.1 µM,> 100 µM,21.5 µM,> 79.7 µM,17.7 µM,59.8 µM,12.5 µM,65.4 µM
c1ccc(CCc2cccnc2)nc1,–,> 100 µM,–,> 100 µM,–,> 100 µM,–,> 100 µM,–,> 100 µM,–,> 100 µM,–,> 100 µM,–,> 100 µM,–,> 100 µM,–,> 100 µM
N#CCCN1C/C(=C/c2ccc(Cl)cc2)C(=O)/C(=C/c2ccc(Cl)cc2)C1,1.8 µM,3.99 µM,2.08 µM,4.86 µM,1.2,2.5 µM,0.489 µM,3.61 µM,1.44 µM,3.39 µM,1.89 µM,10.4 µM,2.95 µM,12 µM,0.868 µM,2.77 µM,2.24 µM,5.22 µM,2.23 µM,5.4 µM
Cc1cc(N=Nc2ccccc2C)ccc1N,16.1 µM,24.9 µM and 38.7 µM,15.5 µM,49.3 µM and 72 µM,–,21.8 µM and 23.7 µM,5.99 µM,26.8 µM and 91.5 µM,2.86 µM,27.4 µM and 16.3 µM,3.42 µM,17.1 µM and 20.3 µM,7.38 µM,46.5 µM and 28.7 µM,2.96 µM,27 µM and 15.8 µM,16.2 µM,38.6 µM and 39 µM,22.2 µM,67 µM and 66.9 µM
